US10729742B2, “Screening method for the identification of agents capable of activating CD4+CD25+ regulatory T-cells through interactions with the HIV-1 GP120 binding site on CD4” (priority 2007, dated 2020)

Tests used:
CD4+CD25+ Treg cells [1] = experiment: Coculture suppression assay B: CD8+ T effector cell proliferation (3H-Tdr incorporation) with CD4+CD25+ Treg cells and syngenic T cell-depleted PBMC; assay type: cell-based, human; conditions: for proliferation of CD8+ T cells co-cultured with CD4+CD25+ Treg cells and inactivated syngenic CD3-depleted PBMC: FIG. 1 black bars, compared with CD8+ T cells without Tregs, 3H-Tdr incorporation 4 days later, effect dose-dependent; for proliferation of CD4+CD25+ Tregs: FIG. 1 white bars
From the text: In order to study the influence of a substance, e.g. HIV-1 gp120 which can bind at least to the epitope given in SEQ ID NO.:1 exclusively on the suppressive function of CD4^+CD25^+ Treg cells, we developed a co-culture assay which contained CD8^+ T cells as effectors to exclude any influence of this substance on the latter (CD8^+ T cells don't express CD4). […] To evaluate the influence of e.g. HIV-1 gp120 on the function of CD4^+CD25^+ Treg cells, isolated CD4^+CD25^+ Treg cells (2.1.4) are co-cultured with syngenic, T cell-depleted and irradiated (50 Gy) PBMC 2.1.6) and allogeneic CD8^+ T effector cells (2.1.3) in presence of varying concentrations (0.1-10 μg/ml) of different HIV-1 gp120 preparations. Briefly, 1×10^5 CD4^+CD25^+ Treg cells are incubated with 3×10^5 syngenic T cell-depleted PBMC in the presence or absence of varying amounts of HIV-1 gp120. Stimulation with 0.5 μg/ml anti-CD3 monoclonal antibody (OKT-3, ebioscience, USA) serves as positive control. No additional stimulation represents negative control. Either immediately or 24 h. later, 1×10^5 allogeneic CD8^+ T effector cells are added to the cultures and proliferation is determined after additional 72 h. by ^3H-Tdr incorporation (37 kBq/well). Functional activation of CD4^+CD25^+ Treg cells via interaction with the epitope as set forth in SEQ ID NO:1 result in suppressed proliferation of CD8^+ T effector cells and therewith identifies a substance as a Treg cell activator (Data see FIG. 1).
After 3-4 days of incubation of cells in assays provided under (2.2.1), (2.2.2) and (2.2.3) T cell proliferation is measured. For additional 16 h., cells are pulsed with ^3H-Tdr (37 kBq/well, MB Biomedicals), and incorporated radioactivity is measured by using a liquid scintillation counter (Betaplate, Wallac/PerkinElmer). In the absence of a Treg cell activating compound, resting Treg cells cannot inhibit the proliferation of CD4^+ T helper cells or CD8^+ T effector cells (negative control). In contrast, in presence of an activating CD4-binding compound or anti-CD3 monoclonal antibody (positive control) the proliferation of CD4^+ T helper cells or CD8^+ T effector cells is suppressed by CD4^+CD25^+ Treg cells. A reduced incorporated radioactivity resembles suppressed proliferation and identifies CD4^+ T helper cell or CD8^+ T effector cell inhibition and therewith identifies that a CD4^+CD25^+ Treg cell has been activated.
In order to study the influence of HIV-1 gp120 exclusively on the function of CD4^+CD25^+ Treg cells, we developed a coculture assay which contained CD8^+ T cells as effectors to exclude any influence of HIV-1 gp120 on the latter. Therefore, isolated CD4^+CD25^+ Treg cells are cocultured with T cell-depleted syngenic PBMC and allogeneic CD8^+ T effector cells. […] (All HIV-1 gp120 proteins: Protein Sciences Corp. Meriden, USA).
1×10^5 isolated CD25^+ Treg cells were incubated with 3×10^5 irradiated (50 Gy) syngenic T cell-depleted PBMC and 1×10^5 allogeneic CD8^+ T effector cells in presence/absence of different HIV-1 gp120 preparations, addition of 0.5 μg/ml anti-CD3 (OKT-3) served as positive control. Proliferation was determined by ^3H-Tdr-Incorporation 4 days later.
Grey bars represent proliferation of CD8^+ T cells and inactivated syngenic CD3-depleted PBMC, white bars represent the proliferation of CD4^+CD25^+ Tregs and the black bars represent the proliferation of CD8^+ T cells co-cultured with CD4^+CD25^+ Tregs cells and inactivated syngenic CD3-depleted PBMC. Due to inactivation PBMC don't contribute to proliferation of the samples.

NOD-Scid mice [2] = experiment: GVHD induced by transfer of human PBMC into NOD-Scid mice; lack of weight increase/weight loss as score; assay type: in vivo; conditions: FIG. 4; 5 μg HIV gp120 injected together with PBMC, intraperitoneal, three to six days old mice
From the text: NOD-Scid mice, non-obese diabetic/severe combined immunodeficient mice, (mutant allele: Prkdc^Scid strain: NOD.CB 17-Prkdc^Scid, (Shultz et al. 1995)) from the Central Laboratory Animal Facility of the University of Mainz (also purchasable from The Jackson Laboratory via Charles River Laboratories, Germany) are used as an animal model for transfer of peripheral human immune cells and thus for the in vivo analysis of immuno-regulatory interactions (Hesselton et al. 1995). Human peripheral blood mononuclear cells (PBMC) transferred into NOD-Scid mice induce an accelerating […] graft-versus-host disease (GVHD). While the number of cells transferred determines the onset of this disease, the co-transfer of human Tregs can gradually delay or prevent the disease. This model system further allows the study of human Treg function. To induce a GVHD NOD-Scid mice at the age of three to six days after birth are intraperitoneally injected with 1×10^7 to 3×10^7 human PBMC (isolation of human PBMC according to 2.1.1). GVHD is induced by immunological (xenogenic) activation of human effector T cells in the PBMC fraction injected into the mice. NOD-Scid mice, however, are not able to react against the grafted human PBMC. […]

NOD-Scid mice [3] = experiment: GVHD induced by transfer of human CD25-depleted PBMC into NOD-Scid mice; lack of weight increase/weight loss as score; assay type: in vivo; conditions: FIG. 5; 5 μg HIV gp120 injected together with CD25-depleted PBMC, intraperitoneal
From the text: NOD-Scid mice at the age of three to six days after birth are intraperitoneally injected with 1×10^7 human CD25-depleted PBMC (isolation of human CD25-depleted PBMC according to 2.1.7). GVHD is induced by 1×10^7 human CD25-depleted PBMC at the same magnitude as by transfer of 1×10^7 human non CD25-depleted PBMC into NOD-Scid mice. […] Prevention of GVHD by HIV gp120 or a substance which can interfere with HIV-1 gp120-binding depends on regulatory T cells. Lack of weight increase/weight loss is used as a parameter to score GVHD severity. Data see FIG. 5.
Three to six days old NOD-Scid mice are intraperitoneally injected with 1×10^7 human CD25-depleted PBMC without (circles) or together with 5 μg HIV gp120 (triangles). […] Lack of weight increase/weight loss is used as a parameter to score GVHD severity.

CD4+CD25+ Treg cells [4] = experiment: Cytosolic cAMP measurement in CD4+CD25+ Treg cells (cAMP-specific ELISA); assay type: cell-based, human; conditions: FIG. 2; 1 μg/ml, 16 hours of stimulation, 1×10^6 T cells
Procedure: Stimulation of Treg cells results in strong increase of cytosolic (i.e. intracellular) cAMP. Therefore, the analysis of cAMP in Treg cells is an additional method to determine whether a substance which can interfere with HIV-1 gp120 binding to CD4 epitope of a CD4-positive cell can activate a Treg cell. In this assay freshly isolated CD4^+CD25^+ Treg cells (according to 2.1.4) (1×10^5-1×10^6/well) are incubated with anti-CD3 monoclonal antibody (OKT-3; 0.5 μg/ml) or HIV-1 gp120 (0.1-10 μg/ml; Protein Science Corp., Meriden, Conn., USA) or left untreated for 16 hours. To assess cytosolic cAMP-concentrations a cAMP-specific ELISA (Parameter™ Cyclic AMP Assay, Cat. No. KGE002; R&D Systems, Wiesbaden, Germany) is applied. […]
Activation of Treg cells by the test compound results directly in an increase of cytosolic cAMP. In the absence of a Treg cell activating compound no increase of cAMP in CD4^+CD25^+ Treg cells is detected (negative control). […]
CD4^+CD25^+ regulatory T cells (CD25) are left untreated (0) or stimulated with an anti-CD3 monoclonal Antibody (OKT-3; 1 μg/ml) or HIV-1 gp120 (1 μg/ml). Upon 16 hours of stimulation the CD4^+CD25^+ regulatory T cells are lysed (1×10^7/ml) and the cytosolic cAMP concentration of 1×10^6 T cells is assessed using a cAMP-specific ELISA. […]

Substance | proliferation of CD8+ T cells co-cultured with CD4+CD25+ Treg cells and inactivated syngenic CD3-depleted PBMC (CD4+CD25+ Treg cells [1]) | proliferation of CD4+CD25+ Tregs (CD4+CD25+ Treg cells [1]; 3H-Tdr incorporation) | development of GVHD (relative body weight) after transfer of 1×10^7 human PBMC (NOD-Scid mice [2]) | development of GVHD (relative body weight) after transfer of 1×10^7 human CD25-depleted PBMC (NOD-Scid mice [3]) | cytosolic (intracellular) cAMP in Treg cells compared to untreated control (CD4+CD25+ Treg cells [4]) | proliferation of CD8+ T cells and inactivated syngenic CD3-depleted PBMC, without Tregs (CD4+CD25+ Treg cells [1]; FIG. 1 grey bars, 3H-Tdr incorporation)
HIV-1 gp120 LAV: HIV-1 gp120 preparation LAV, Protein Sciences Corp. Meriden, USA | reduced proliferation | don't show a significant proliferation | – | – | – | –
HIV-1 gp120 MN: HIV-1 gp120 preparation MN, Protein Sciences Corp. Meriden, USA | reduced proliferation | don't show a significant proliferation | – | – | – | –
HIV-1 gp120 CM: HIV-1 gp120 preparation CM, Protein Sciences Corp. Meriden, USA | reduced proliferation | don't show a significant proliferation | – | – | – | –
HIV-1 gp120: human immune deficiency virus 1 (HIV-1) glycoprotein gp120, binds CD4; Protein Sciences Corp. | – | – | protected from development of GVHD | not protected from development of GVHD | increase of intracellular cAMP | –
anti-CD3: anti-CD3 monoclonal antibody (OKT-3, ebioscience, USA), positive control [reference compound] | reduced proliferation | don't show a significant proliferation | – | – | increase of intracellular cAMP | strong increased proliferation
